The results in this text go back to article PMC5408782, “Engineering bacterial thiosulfate and tetrathionate sensors for detecting gut inflammation” (Molecular Systems Biology, 2017).

The target of test [1] is T1, ThsSR (ThsS/R; Shal_3128/9) (Shewanella halifaxensis, UniProt B0TQ83).
T1 construct: E. coli codon-optimised ThsS (pKD182, IPTG-inducible) and ThsR (pKD184, aTc-inducible) in E. coli BW28357; PphsA342-sfGFP reporter; membrane histidine kinase with PhnD-like periplasmic sensor domain; with Thiosulfate response regulator ThsR
T1 sequence (B0TQ83 1-594): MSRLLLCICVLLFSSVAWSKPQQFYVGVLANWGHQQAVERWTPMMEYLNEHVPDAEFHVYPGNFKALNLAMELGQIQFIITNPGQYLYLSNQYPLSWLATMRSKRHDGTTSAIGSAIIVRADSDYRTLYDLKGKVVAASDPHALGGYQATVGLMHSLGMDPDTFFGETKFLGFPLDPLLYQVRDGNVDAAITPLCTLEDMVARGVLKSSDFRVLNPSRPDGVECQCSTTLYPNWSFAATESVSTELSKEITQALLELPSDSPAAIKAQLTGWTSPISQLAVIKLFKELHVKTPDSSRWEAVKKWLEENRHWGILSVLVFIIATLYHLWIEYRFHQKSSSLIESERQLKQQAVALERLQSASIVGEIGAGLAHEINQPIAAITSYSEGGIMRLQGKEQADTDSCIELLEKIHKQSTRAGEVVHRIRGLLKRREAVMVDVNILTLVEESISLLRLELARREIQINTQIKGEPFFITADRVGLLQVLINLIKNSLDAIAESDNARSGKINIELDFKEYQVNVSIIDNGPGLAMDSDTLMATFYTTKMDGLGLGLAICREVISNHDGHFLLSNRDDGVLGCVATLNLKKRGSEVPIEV
In words: sfGFP reporter, flow cytometry, repression transfer function. Conditions: read-out: half-maximal inhibition. In kind it is cell-based.

In test [2] the test system is T2, S. baltica TtrSR (Sbal195_3859/8).
T2 construct: gene ttrS; E. coli codon-optimised TtrS (pKD227, IPTG-inducible) and TtrR (pKD226, aTc-inducible) in E. coli BW28357; PttrB185-269-sfGFP reporter; with Tetrathionate response regulator TtrR
In words: sfGFP reporter, flow cytometry, Hill fit. In kind it is cell-based, Shewanella baltica. The following applies: E. coli BW28357, aerobic, M9 + glycerol, 37°C, 10 μM IPTG; PttrB185-269 reporter; activation; read-out: k 1/2.

In test [3] the target is T1, ThsSR (ThsS/R; Shal_3128/9). In words: sfGFP reporter, flow cytometry, Hill fit. It is filed as cell-based. The following applies: read-out: k 1/2. (In flow cytometry, cells or beads pass a laser one at a time.)

Structures are written as SMILES.

Take `O=S(O)O` [sulfite]: the IC50 in test [1] was found to be 390 ± 10 µM.
Consider `O=S(=O)(O)SSS(=O)(=O)O` [tetrathionate], for which the IC50 in test [1] came out at 550 ± 20 µM. For the same molecule, the EC50 in test [2] is 50 ± 3 µM.
With `O=S(O)(O)=S` [thiosulfate], the EC50 in test [3] amounted to 280 ± 10 µM.
